From patent US20020086278A1, “CHROMOGENIC MEDIA CONTAINING BLOOD OR HEMIN” (priority 1999, published 2002)
“Also recorded” adds a separate entry of the source. Where two headings read alike, the source gives them in different places.

How the values were obtained:
S pyogenes (stpy) = assay: Example 3: colony color on chromogenic TSA II with 5% sheep blood (chromogen in medium); assay type: cell-based; conditions: CO2, 18 h
Group B Strep. 12386 = assay: Example 1: growth and colony color on plates surface-spread with chromogen; assay type: cell-based; conditions: for Color: Group B Strep 12386
S. pneumoniae (stpn) = assay: Example 3: colony color on chromogenic TSA II with 5% sheep blood (chromogen in medium); assay type: cell-based; conditions: for Colony Color on Various Chromogenic TSA II with 5% Sheep Blood: CO2, 18 h
Salmonella spp. (sasp) = assay type: cell-based; conditions: for Colony Color: CO2, 18 h
E. faecium (enfu) = assay: Example 3: colony color on chromogenic TSA II with 5% sheep blood (chromogen in medium); assay type: cell-based
Candida albicans (caal) = assay: as above; assay type: cell-based
[1] = system: Klebsiella pneumoniae (klpn); assay: as above; assay type: cell-based; conditions: for Colony Color: CO2, 18 h
[2] = system: Pseudomonas aeruginosa (psae); assay: as above; assay type: cell-based; conditions: for Colony Color: CO2, 18 h
[3] = system: Streptococcus agalactiae (stag); assay: as above; assay type: cell-based; conditions: chromogenic TSA II with 5% Sheep Blood, 0.1 g/l; 3 strains tested
S. milleri (stmi) = assay: as above; assay type: cell-based
[4] = system: E. coli (non-O157) (esco); assay type: cell-based; conditions: chromogenic TSA II with 5% Sheep Blood, 0.1 g/l; 3 strains tested
[5] = system: Branhamella catarrhalis (brca); assay: Example 3: colony color on chromogenic TSA II with 5% sheep blood (chromogen in medium); assay type: cell-based; conditions: for Colony Color: CO2, 18 h
E. coli 25922 = assay: Example 2: effect of incubation conditions on colony color formation; assay type: cell-based, Escherichia coli; conditions: 0.004 g/plate
cakr 34135 = assay: Example 3: colony color on chromogenic TSA II with 5% sheep blood (chromogen in medium); assay type: cell-based; conditions: CO2, 18 h
[6] = system: Serratia marcescens (sema); assay: as above; assay type: cell-based
Escherichia coli 25922 = assay: Example 1: growth and colony color on plates surface-spread with chromogen; assay type: cell-based; conditions: E. coli 25922
S. agalactiae 12386 = assay: Example 2: effect of incubation conditions on colony color formation; assay type: cell-based, Streptococcus agalactiae; conditions: 0.004 g/plate, 24 h, CO2
milu 9341 = assay: Example 3: colony color on chromogenic TSA II with 5% sheep blood (chromogen in medium); assay type: cell-based; conditions: CO2, 18 h
[7] = system: Staphylococcus aureus (stau); assay: as above; assay type: cell-based
[8] = system: Entercoccus faecalis (enfa); assay: as above; assay type: cell-based; conditions: for Colony Color: CO2, 18 h
[9] = system: Aeromonas hydrophilia (aehy); assay: as above; assay type: cell-based; conditions: for Colony Color: CO2, 18 h
[10] = system: Gardnerella vaginalis 14019; assay: Example 1: growth and colony color on plates surface-spread with chromogen; assay type: cell-based; conditions: Summary of Table I; G. vaginalis 14014
[11] = chromogenic TSA II with 5% Sheep Blood, 0.1 g/l, 6 strains tested
[12] = chromogenic TSA II with 5% Sheep Blood, 0.1 g/l, 2 strains tested
[13] = chromogenic TSA II with 5% Sheep Blood, 0.1 g/l, 1 strain tested
[14] = chromogenic TSA II with 5% Sheep Blood, 0.1 g/l, 3 strains tested

In the case of `O=C(O)[C@H]1O[C@@H](Oc2c[nH]c3ccc(Br)c(Cl)c23)[C@H](O)[C@@H](O)[C@@H]1O` [X-Glucuro, X-Glucuronide], the “Colony Color on Various Chromogenic TSA II with 5% Sheep Blood” value (from here on “Colony Color … with 5% Sheep Blood”) (S pyogenes (stpy); stpy 51339) is reported as “db beta”, the “Colony Color … with 5% Sheep Blood” value (S pyogenes (stpy); stpy t027) is reported as 0 and the “Colony Color … with 5% Sheep Blood” value (S pyogenes (stpy); stpy t028) is reported as 0. For the same molecule, the “Colony Color … with 5% Sheep Blood” value (S pyogenes (stpy); stpy t029) was 0, the “Colony Color … with 5% Sheep Blood” value (S pyogenes (stpy); stpy t030) was 0 and the Color (Group B Strep. 12386; Choc II) was “blue”. For the same molecule, the “Substrates Producing Color” value (Group B Strep. 12386; Summary of Table I, Group B Strep. 12386) was “Glucuro”, the Color (Group B Strep. 12386; TSA II 5SB) was “blue with beta hemolysis; also recorded: blue (a)” and the Color (Group B Strep. 12386; TSA Plain) was “blue”. The “Colony Color (Summary)” value (S. pneumoniae (stpn); [11]) was 0, the “Colony Color … with 5% Sheep Blood” value (S. pneumoniae (stpn); stpn t259) was 0 and the “Colony Color … with 5% Sheep Blood” value (S. pneumoniae (stpn); stpn t260) was 0. For the same molecule, the “Colony Color … with 5% Sheep Blood” value (S. pneumoniae (stpn); stpn t331) was 0, the “Colony Color … with 5% Sheep Blood” value (S. pneumoniae (stpn); stpn t628) was 0 and the “Colony Color (Summary)” value (Salmonella spp. (sasp); [12]) was 0. For the same molecule, the “Colony Color” value (Salmonella spp. (sasp); saty 19430) was 0, the “Colony Color” value (Salmonella spp. (sasp); satym 14028) was 0 and the “Colony Color (Summary)” value (E. faecium (enfu); [13]) was 0. The “Colony Color” value (E. faecium (enfu); enfu 49032, CO2, 18 h) was 0, the “Colony Color” value (Candida albicans (caal); caal 10231, CO2, 18 h) was 0 and the “Colony Color (Summary)” value (Candida albicans (caal); [12]) was 0. The “Colony Color (Summary)” value [1, 14] was 0, the “Colony Color” value ([1]; klpn 13883) was 0 and the “Colony Color” value ([1]; klpn 33495) was 0. For the same molecule, the “Colony Color” value ([1]; klpn 33606) was 0, the “Colony Color (Summary)” value [2, 14] was 0 and the “Colony Color” value ([2]; psae 9027) was 0. The “Colony Color” value ([2]; psae 15442) was 0, the “Colony Color” value ([2]; psae 33607) was 0 and the “Colony Color (Summary)” value [3] was 0. For the same molecule, the “Colony Color (Summary)” value (S. milleri (stmi); [12]) was 0, the “Colony Color … with 5% Sheep Blood” value (S. milleri (stmi); stmi 6242, CO2, 18 h) was 0 and the “Colony Color (Summary)” value [4] was “+”. The “Colony Color” value ([5]; brca 25238) was 0, the “Colony Color” value ([5]; brca 25240) was 0 and the “Colony Color (Summary)” value [5, 12] was 0. The Colony Color (E. coli 25922; Chocolate II Agar, 24 h, air) was “blue (d)”, the Colony Color (E. coli 25922; TSA II 5% Sheep Blood, 24 h, air) was “blue (d)” and the Colony Color (E. coli 25922; TSA II 5% Sheep Blood, 5 d, ANA) was “blue (m)”. The Colony Color (E. coli 25922; TSA II 5% Sheep Blood, 5 d, MA) was “blue (m)”, the “Colony Color” value (cakr 34135) was 0 and the “Colony Color (Summary)” value [6, 13] was 0. For the same molecule, the “Colony Color” value ([6]; sema 13880, CO2, 18 h) was 0, the Color (Escherichia coli 25922; Choc II) was “blue” and the “Substrates Producing Color” value (Escherichia coli 25922; Summary of Table I) was “X-Glucuro”. The Color (Escherichia coli 25922; TSA II 5SB) was “blue”, the Color (Escherichia coli 25922; TSA Plain) was “blue” and the Colony Color (S. agalactiae 12386; Chocolate II Agar) was “blue (d)”. For the same molecule, the Colony Color (S. agalactiae 12386; TSA II 5% Sheep Blood) was “blue (d)”, the “Colony Color” value (milu 9341) was “ly” and the “Colony Color (Summary)” value ([7]; chromogenic TSA II with 5% Sheep Blood, 0.1 g/l, 5 strains tested) was 0. The “Colony Color” value ([7]; stau 25923, CO2, 18 h) was 0, the “Colony Color … with 5% Sheep Blood” value ([7]; stau t006, CO2, 18 h) was 0 and the “Colony Color … with 5% Sheep Blood” value ([7]; stau t007, CO2, 18 h) was 0. The “Colony Color … with 5% Sheep Blood” value ([7]; stau t008, CO2, 18 h) was 0, the “Colony Color … with 5% Sheep Blood” value ([7]; stau t009, CO2, 18 h) was 0 and the “Colony Color (Summary)” value [8, 11] was 0. For the same molecule, the “Colony Color” value ([8]; enfa 597) was 0, the “Colony Color” value ([8]; enfa 10741) was 0 and the “Colony Color” value ([8]; enfa 12953) was 0. For the same molecule, the “Colony Color” value ([8]; enfa 14506) was 0, the “Colony Color” value ([8]; enfa 29212) was 0 and the “Colony Color” value ([9]; aehy 7965) was 0. For the same molecule, the “Colony Color” value ([9]; aehy 7966) was 0, the “Colony Color” value ([9]; aehy 49847) was 0 and the “Colony Color (Summary)” value [9, 14] was 0. For the same molecule, the “Substrates Producing Growth Inhibition” value [10] was “Glucuro”.
